Bridges are numbered along the chain shown (N, C = ends). [ ]: non-standard residue; d: D form. The star is where a group is joined. DOTA = O=C(O)CN1CCN(CC(=O)O)CCN(CC(=O)*)CCN(CC(=O)O)CC1; Arg(Me2s) = CN=C(NC)NCCC[C@H](N)C(=O)O; PEG4 = NCCOCCOCCOCCOCCC(=O)O
What was measured:
Nectin-4 = target: T1, Nectin-4 (Homo sapiens, UniProt Q96NY8); assay: DELFIA whole cell binding assay, equilibrium binding affinity (KD), Table 2B; details: Table 2B, binding to Nectin-4; read-out: Binding Affinity (KD)
T1 sequence (Q96NY8 32-510): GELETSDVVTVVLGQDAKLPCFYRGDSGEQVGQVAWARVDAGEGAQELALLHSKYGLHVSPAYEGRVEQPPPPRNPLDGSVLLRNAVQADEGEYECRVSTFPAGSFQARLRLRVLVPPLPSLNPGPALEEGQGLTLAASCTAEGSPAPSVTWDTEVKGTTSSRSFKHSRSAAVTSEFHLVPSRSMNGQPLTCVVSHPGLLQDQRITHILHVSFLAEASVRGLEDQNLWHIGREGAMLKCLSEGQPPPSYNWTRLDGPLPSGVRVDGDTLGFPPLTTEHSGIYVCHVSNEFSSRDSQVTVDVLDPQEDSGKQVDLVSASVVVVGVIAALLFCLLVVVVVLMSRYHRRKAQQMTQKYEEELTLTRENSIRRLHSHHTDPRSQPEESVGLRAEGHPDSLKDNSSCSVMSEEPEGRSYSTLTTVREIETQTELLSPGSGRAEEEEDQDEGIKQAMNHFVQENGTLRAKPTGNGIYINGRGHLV
Experimental: A whole cell binding assay was used to estimate the equilibrium binding affinity (KD) or binding inhibition constant (Ki) of miniprotein ligands to cells expressing a target of interest. Cells were dispensed into a 384-well plate and incubated at 37° C., in 5% CO2 overnight. The next day cells were gently washed once in assay buffer prior to addition of europium chelated ligand. For KD determination, a miniprotein conjugated with europium chelate (DOTA or DTPA) in the presence or absence of 100-fold excess un-conjugated ligand was incubated with cells over 12 different concentrations ranging from 100 times below and above expected KD values. For Ki determination, a single concentration (KD equivalent concentration) of europium-chelate miniprotein was added to each well followed immediately by the addition of unconjugated competing ligand over 12 different concentrations ranging from 100 times below and above expected Ki values as before. The plate was incubated for 1.5 h at room temperature to reach binding equilibrium. Cells were then washed three times at room temperature with 1×PBS followed by the addition of 2 M HCl and incubated for two h at 37° C. Following this step, 2 M NaOH and fluorescent inducer solution were added to each well and incubated for 30 minutes at room temperature according to the manufacturer's protocol (Perkin-ELMER DELFIA assay). Plates were read on an Envision plate reader and a curve-fitting model was applied to estimate KD and Ki values using GraphPad Prism software. Mean DELFIA K; values for exemplary miniproteins are recorded in TABLE 9A.

[1] = In vivo biodistribution of 111In-labeled miniproteins by SPECT/CT, HT-1376 xenograft; set-up: species or system mouse; details: female, athymic nude, mouse, in vivo
Text: HT-1376 is a human cell line that expresses Nectin-4.
Humane endpoints: All animals were euthanized following the final imaging time point and carcasses were discarded according to IACUC protocols.
Image Processing: Images were generated as SPECT/CT pairs with the SPECT reported in units of activity.
Image generation: After the preprocessing described in A, individual maximum intensity projections (MIPs) were created with VivoQuant software for each subject at each time point and scaled in percent injected dose per gram (% ID/g). The CT for each image was windowed from −500 to 4500 Hounsfield Units (HU). The SPECT was windowed at various ranges to highlight different regions of uptake. Images were then stitched together using Image Magick based python tools to create montages of subjects over time and time points over groups.

[2] = In vitro metabolic stability in serum/plasma (percent parent remaining, LC-MS); format: in vitro ADME; details: mouse
Experimental: Exemplary miniproteins were spiked into biological matrices at initial concentration between 1-2 μM. Tested matrices were varied by species (mouse, rat, human) and type (plasma, serum, and kidney brush border membrane (kBBM) preparations tested each from 0.625-100 μg/mL protein content). Tested conditions were incubated with miniproteins at 37° C. for 4 h. At collection points of 0, 15, 30, 60, 120, 240 minutes, 50 μL of each condition were quenched by organic solvent (methanol or acetonitrile) or the addition of 4% phosphoric acid solution followed by solid-phase extraction. Fractions of each quenched timepoint were subsequently assayed for parent miniproteins concentration by high resolution LC-MS. Percent-parent-remaining-time plots were constructed from the ratio of each given time collection to the time-zero parent miniprotein. Percent-parent-remaining in mouse serum and plasma for exemplary miniproteins are recorded in TABLE 11.

Compound	Kd (Nectin-4)	tissue uptake at 4 h [1]	tissue uptake at 24 h [1]	half-life [2]	half-life ([2]; plasma)
CC[C@H](C)[C@@H]1NC(=O)CNC(=O)[C@@H]2CCCN2C(=O)[C@H](CC(C)C)NC(=O)[C@H](Cc2ccc(O)cc2)NC(=O)[C@H](CC(N)=O)NC(=O)[C@H](Cc2ccccc2)NC(=O)[C@H](C)NC(=O)[C@H](CCC(N)=O)NC(=O)[C@H](CCC(N)=O)NC(=O)[C@H]([C@@H](C)CC)NC(=O)[C@H](Cc2ccc(O)cc2)NC(=O)[C@H](Cc2ccc(O)cc2)NC(=O)[C@@H]2CSSC[C@@H](C(=O)O)NC(=O)CNC(=O)[C@H](CC(C)C)NC(=O)[C@H](CC(N)=O)NC(=O)[C@H](CC(=O)O)NC(=O)[C@H](CC(C)C)NC(=O)[C@H]([C@@H](C)CC)NC(=O)[C@H](CCC(=O)O)NC(=O)[C@H](CCC(=O)O)NC(=O)[C@H]([C@@H](C)CC)NC(=O)[C@H](CSSC[C@H](NC(C)=O)C(=O)N[C@@H](CCC(=O)O)C(=O)N[C@@H](Cc3ccc(O)cc3)C(=O)N[C@@H](CC(=O)O)C(=O)N[C@@H](CCC(=O)O)C(=O)N[C@@H](CCC(=O)O)C(=O)N[C@@H](Cc3ccccc3)C(=O)N[C@@H](Cc3ccccc3)C(=O)N[C@@H]([C@@H](C)O)C(=O)N[C@@H](C)C(=O)N[C@@H](CC(C)C)C(=O)N[C@@H](CCCCN)C(=O)N[C@@H](CCCCN)C(=O)N[C@@H](CC(C)C)C(=O)N[C@@H](CCCNC(=N)N)C(=O)NCC(=O)NCC(=O)N[C@@H](CC(=O)O)C(=O)N[C@@H]([C@@H](C)CC)C(=O)N2)NC1=O [Compound C104]	3.7 nM	69.6 %ID/g	40.6 %ID/g	–	–
CC[C@H](C)[C@@H]1NC(=O)[C@H](Cc2ccc(O)cc2)NC(=O)[C@H](CC(=O)O)NC(=O)[C@@H]2CSSC[C@@H](C(=O)N[C@@H](CO)C(=O)O)NC(=O)CNC(=O)[C@H](CC(C)C)NC(=O)[C@H](CC(N)=O)NC(=O)[C@H](CC(=O)O)NC(=O)[C@H](CC(C)C)NC(=O)[C@H]([C@@H](C)CC)NC(=O)[C@H](CCC(=O)O)NC(=O)[C@H](CCC(=O)O)NC(=O)[C@H]([C@@H](C)CC)NC(=O)[C@H](CSSC[C@H](NC(=O)CCOCCOCCOCCOCCNC(=O)CN3CCN(CC(=O)O)CCN(CC(=O)O)CCN(CC(=O)O)CC3)C(=O)N[C@@H](CCC(=O)O)C(=O)N[C@@H](Cc3ccc(O)cc3)C(=O)N[C@@H](CC(=O)O)C(=O)N[C@@H](CCC(=O)O)C(=O)N[C@@H](CCC(N)=O)C(=O)N[C@@H](Cc3ccccc3)C(=O)N[C@@H](Cc3ccccc3)C(=O)N[C@@H]([C@@H](C)O)C(=O)N[C@@H](C)C(=O)N[C@@H](CC(C)C)C(=O)N[C@@H](CCCCN)C(=O)N[C@@H](CCCNC(=N)N)C(=O)N[C@@H](CC(C)C)C(=O)N[C@@H](CCCNC(=N)N)C(=O)NCC(=O)N[C@@H](CC(=O)O)C(=O)N[C@@H](CC(=O)O)C(=O)N[C@@H]([C@@H](C)CC)C(=O)N2)NC(=O)[C@H](CC(C)C)NC(=O)CNC(=O)[C@@H]2CCCN2C(=O)[C@H](CC(C)C)NC(=O)[C@H](Cc2ccc(O)cc2)NC(=O)[C@H](CCC(N)=O)NC(=O)[C@H](Cc2ccccc2)NC(=O)[C@H](CO)NC(=O)[C@H](C)NC(=O)[C@H](CCC(N)=O)NC1=O [Compound C236]	–	65.1 %ID/g	42.1 %ID/g	> 12 h	> 12 h
CC[C@H](C)[C@@H]1NC(=O)[C@H](Cc2ccc(O)cc2)NC(=O)[C@H](CCC(=O)O)NC(=O)[C@@H]2CSSC[C@@H](C(=O)N[C@@H](CO)C(=O)O)NC(=O)CNC(=O)[C@H](CC(C)C)NC(=O)[C@H](CC(N)=O)NC(=O)[C@H](CC(=O)O)NC(=O)[C@H](CC(C)C)NC(=O)[C@H]([C@@H](C)CC)NC(=O)[C@H](CCC(=O)O)NC(=O)[C@H](CCC(=O)O)NC(=O)[C@H]([C@@H](C)CC)NC(=O)[C@H](CSSC[C@H](NC(=O)CCOCCOCCOCCOCCNC(=O)CN3CCN(CC(=O)O)CCN(CC(=O)O)CCN(CC(=O)O)CC3)C(=O)N[C@@H](CC(=O)O)C(=O)N[C@@H](Cc3ccc(O)cc3)C(=O)N[C@@H](CC(=O)O)C(=O)N[C@@H](CCC(=O)O)C(=O)N[C@@H](CCC(N)=O)C(=O)N[C@@H](Cc3ccccc3)C(=O)N[C@@H](Cc3ccccc3)C(=O)N[C@@H]([C@@H](C)O)C(=O)N[C@@H](C)C(=O)N[C@@H](CC(C)C)C(=O)N[C@@H](CCCCN)C(=O)N[C@@H](CCCNC(=N)N)C(=O)N[C@@H](CC(C)C)C(=O)N[C@@H](CCCNC(=N)N)C(=O)NCC(=O)NCC(=O)N[C@@H](CC(=O)O)C(=O)N[C@@H]([C@@H](C)CC)C(=O)N2)NC(=O)[C@H](CC(C)C)NC(=O)CNC(=O)[C@@H]2CCCN2C(=O)[C@H](CC(C)C)NC(=O)[C@H](Cc2ccc(O)cc2)NC(=O)[C@H](CCC(N)=O)NC(=O)[C@H](Cc2ccccc2)NC(=O)[C@H](CO)NC(=O)[C@H](C)NC(=O)[C@H](CCC(N)=O)NC1=O [Compound C241]	–	60.1 %ID/g	38.3 %ID/g	> 12 h	> 12 h
CC[C@H](C)[C@@H]1NC(=O)[C@H](Cc2ccc(O)cc2)NC(=O)[C@H](CCC(=O)O)NC(=O)[C@@H]2CSSC[C@@H](C(=O)N[C@@H](CO)C(=O)O)NC(=O)CNC(=O)[C@H](CC(C)C)NC(=O)[C@H](CC(N)=O)NC(=O)[C@H](CC(=O)O)NC(=O)[C@H](CC(C)C)NC(=O)[C@H]([C@@H](C)CC)NC(=O)[C@H](CCC(=O)O)NC(=O)[C@H](CCC(=O)O)NC(=O)[C@H]([C@@H](C)CC)NC(=O)[C@H](CSSC[C@H](NC(=O)CCOCCOCCOCCOCCNC(=O)CN3CCN(CC(=O)O)CCN(CC(=O)O)CCN(CC(=O)O)CC3)C(=O)N[C@@H](CC(=O)O)C(=O)N[C@@H](Cc3ccc(O)cc3)C(=O)N[C@@H](CC(=O)O)C(=O)N[C@@H](CCC(=O)O)C(=O)N[C@@H](CCC(N)=O)C(=O)N[C@@H](Cc3ccccc3)C(=O)N[C@@H](Cc3ccccc3)C(=O)N[C@@H]([C@@H](C)O)C(=O)N[C@@H](C)C(=O)N[C@@H](CC(C)C)C(=O)N[C@@H](C)C(=O)N[C@@H](CCCNC(=N)N)C(=O)N[C@@H](CC(C)C)C(=O)N[C@@H](CCCNC(=N)N)C(=O)NCC(=O)N[C@@H](C)C(=O)N[C@@H](CC(=O)O)C(=O)N[C@@H]([C@@H](C)CC)C(=O)N2)NC(=O)[C@H](CCC(=O)O)NC(=O)CNC(=O)[C@@H]2CCCN2C(=O)[C@H](CC(C)C)NC(=O)[C@H](Cc2ccc(O)cc2)NC(=O)[C@H](CCC(N)=O)NC(=O)[C@H](Cc2ccccc2)NC(=O)[C@H](CO)NC(=O)[C@H](C)NC(=O)[C@H](CCC(N)=O)NC1=O [Compound C245]	–	61 %ID/g	33.5 %ID/g	> 12 h	> 12 h
{DOTA-PEG4}-CEYDEQFFTALARLRGGDICEYIQARFQYLPGLCIEEILDNLGCS-OH (disulfide 1-34, 20-44 (inferred)) [Compound C265]	–	–	–	> 12 h	> 12 h
{DOTA-PEG4}-CEYDEQFFTALARLRGGDICEYIQA[Arg(Me2s)]FQYLPGLCIEEILDNLGCS-OH (disulfide 1-34, 20-44 (inferred)) [Compound C268]	–	–	–	> 12 h	> 12 h

Reference: patent US12427212B2, “Nectin-4 binding miniproteins, conjugates and uses thereof” (Aktis Oncology, Inc., priority 2023, dated 2025)
